Reference: the NIST ThermoML archive (doi:10.1016/j.jct.2012.07.006)
± gives the expanded uncertainty stated by the source. Blank lines part the entries; values can stand above or below the molecule they belong to.

Columns and labels:
[1] = 298.15 K; 101.33 kPa; Liquid; Pycnometric method
[2] = excess molar enthalpy (molar enthalpy of mixing); xn = mol fraction of the nth substance listed; settings: 298.15 K, 101 kPa, Liquid, Calvet calorimetry

Structure (SMILES): CNc1ccccc1 [N-methylaniline]
mass density [1]: 982.237 ± 20 kg/m3

Structure (SMILES): CNc1ccccc1 [N-methylaniline] + C1CCCCC1
excess molar enthalpy ([2]; x1 = 0.0978): 0.197 ± 0.0043 kcal/mol
excess molar enthalpy ([2]; x1 = 0.1987): 0.31 ± 0.00669 kcal/mol
excess molar enthalpy ([2]; x1 = 0.2934): 0.364 ± 0.00789 kcal/mol
excess molar enthalpy ([2]; x1 = 0.4002): 0.385 ± 0.00813 kcal/mol
excess molar enthalpy ([2]; x1 = 0.4937): 0.389 ± 0.00837 kcal/mol
excess molar enthalpy ([2]; x1 = 0.5934): 0.368 ± 0.00789 kcal/mol
excess molar enthalpy ([2]; x1 = 0.6935): 0.313 ± 0.00669 kcal/mol
excess molar enthalpy ([2]; x1 = 0.7953): 0.232 ± 0.00502 kcal/mol
excess molar enthalpy ([2]; x1 = 0.8938): 0.136 ± 0.00287 kcal/mol

Structure (SMILES): CNc1ccccc1 [N-methylaniline] + CCCCCCC
excess molar enthalpy ([2]; x1 = 0.102): 0.196 ± 0.0043 kcal/mol
excess molar enthalpy ([2]; x1 = 0.1982): 0.309 ± 0.00669 kcal/mol
excess molar enthalpy ([2]; x1 = 0.2968): 0.368 ± 0.00789 kcal/mol
excess molar enthalpy ([2]; x1 = 0.3935): 0.395 ± 0.00837 kcal/mol
excess molar enthalpy ([2]; x1 = 0.4983): 0.401 ± 0.0086 kcal/mol
excess molar enthalpy ([2]; x1 = 0.5982): 0.382 ± 0.00813 kcal/mol
excess molar enthalpy ([2]; x1 = 0.6934): 0.344 ± 0.00741 kcal/mol
excess molar enthalpy ([2]; x1 = 0.7941): 0.269 ± 0.00574 kcal/mol
excess molar enthalpy ([2]; x1 = 0.8939): 0.162 ± 0.00359 kcal/mol

Structure (SMILES): CNc1ccccc1 [N-methylaniline] + CCCCCCCC
excess molar enthalpy ([2]; x1 = 0.1045): 0.204 ± 0.0043 kcal/mol
excess molar enthalpy ([2]; x1 = 0.2002): 0.322 ± 0.00693 kcal/mol
excess molar enthalpy ([2]; x1 = 0.303): 0.388 ± 0.00837 kcal/mol
excess molar enthalpy ([2]; x1 = 0.4117): 0.419 ± 0.00884 kcal/mol
excess molar enthalpy ([2]; x1 = 0.4956): 0.424 ± 0.00908 kcal/mol
excess molar enthalpy ([2]; x1 = 0.5965): 0.405 ± 0.0086 kcal/mol
excess molar enthalpy ([2]; x1 = 0.6933): 0.361 ± 0.00765 kcal/mol
excess molar enthalpy ([2]; x1 = 0.791): 0.285 ± 0.00621 kcal/mol
excess molar enthalpy ([2]; x1 = 0.889): 0.184 ± 0.00406 kcal/mol

Structure (SMILES): CNc1ccccc1 [N-methylaniline] + CCCCCCCCCC
excess molar enthalpy ([2]; x1 = 0.1015): 0.211 ± 0.00454 kcal/mol
excess molar enthalpy ([2]; x1 = 0.201): 0.34 ± 0.00717 kcal/mol
excess molar enthalpy ([2]; x1 = 0.2993): 0.413 ± 0.00884 kcal/mol
excess molar enthalpy ([2]; x1 = 0.3848): 0.448 ± 0.00956 kcal/mol
excess molar enthalpy ([2]; x1 = 0.487): 0.458 ± 0.0098 kcal/mol
excess molar enthalpy ([2]; x1 = 0.5963): 0.44 ± 0.00932 kcal/mol
excess molar enthalpy ([2]; x1 = 0.6951): 0.395 ± 0.00837 kcal/mol
excess molar enthalpy ([2]; x1 = 0.7934): 0.316 ± 0.00669 kcal/mol
excess molar enthalpy ([2]; x1 = 0.8899): 0.205 ± 0.0043 kcal/mol

Structure (SMILES): CNc1ccccc1 [N-methylaniline] + Cc1ccccc1
excess molar enthalpy ([2]; x1 = 0.0991): 0.0535 ± 0.0012 kcal/mol
excess molar enthalpy ([2]; x1 = 0.1956): 0.088 ± 0.00191 kcal/mol
excess molar enthalpy ([2]; x1 = 0.2952): 0.11 ± 0.00239 kcal/mol
excess molar enthalpy ([2]; x1 = 0.399): 0.12 ± 0.00263 kcal/mol
excess molar enthalpy ([2]; x1 = 0.4973): 0.119 ± 0.00263 kcal/mol
excess molar enthalpy ([2]; x1 = 0.5922): 0.111 ± 0.00239 kcal/mol
excess molar enthalpy ([2]; x1 = 0.6882): 0.0925 ± 0.00215 kcal/mol
excess molar enthalpy ([2]; x1 = 0.7892): 0.0686 ± 0.00143 kcal/mol
excess molar enthalpy ([2]; x1 = 0.8851): 0.0397 ± 0.000956 kcal/mol

mass density [1]: 773.96 ± 20 kg/m3
Structure (SMILES): C1CCCCC1 [cyclohexane]

mass density [1]: 726.47 ± 20 kg/m3
Structure (SMILES): CCCCCCCCCC [decane]

mass density [1]: 679.71 ± 20 kg/m3
Structure (SMILES): CCCCCCC [heptane]

mass density [1]: 769.91 ± 20 kg/m3
Structure (SMILES): CCCCCCCCCCCCCCCC [hexadecane]

mass density [1]: 698.75 ± 20 kg/m3
Structure (SMILES): CCCCCCCC [octane]

mass density [1]: 759.19 ± 20 kg/m3
Structure (SMILES): CCCCCCCCCCCCCC [tetradecane]

Structure (SMILES): Cc1ccccc1 [toluene]
mass density [1]: 862.346 ± 24 kg/m3
